The target of one series is T1, human isoQC (Homo sapiens, UniProt Q9NXS2).
T1 construct: The Golgi luminal, enzymatically active region of human isoQC (S53-L382; see, e.g., Huang et al., 2011); GST (with enterokinase site) (N, cleaved yes); made in house; host or cells: E. coli
The series can be described thus: Assay 1 - isoQC potency, fluorescent enzymatic assay (H-Gln-AMC, coupled pGAPase detection). In kind it is biochemical. The settings on record: recombinant isoQC, 1 hour at 37°C. The source says: The Golgi luminal, enzymatically active region of human isoQC (S53-L382; see, e.g., Huang et al., 2011) was obtained by expression in E. coli of an N-terminally GST Enterokinase and C-terminally 6xHis tagged construct in the pET41(+) vector and subsequent purification using Ni-NTA IMAC. Enterokinase digestion ensued, followed by another Ni-NTA IMAC purification, Superdex75 based size exclusion and finally a spin concentration using a 10 kDa molecular weight cutoff. The final protein is formulated in 50 mM Tris-HCl, 150 mM NaCl, 50% Glycerol, pH 7.8.
(§1) Pyroglutamylation was measured by conversion of glutamine-4-amino-7-methylcoumarine (H-Gln-AMC, Bachem) to pyroglutamyl-AMC, which is subsequently a specific substrate for pyroglutamylaminopeptidase (pGAPase, Qiagen), releasing free AMC which can be fluorescently detected. For a typical inhibition assay, 7.5 µL aliquots of threefold dilutions of test compound in 50mM Tris pH8 buffer were plated in 384-well plates. 15 µL 20 µM hGln-AMC (diluted from a 40 mM stock dissolved in 25 mM HEPES using 50 mM Tris-HCl 25 pH 8.0) was added to each well. Finally, 7.5 µL, 3 ng/µL recombinant isoQC enzyme was added and the reaction mixture was incubated for 1 hour at 37°C. A 5 minute incubation at 98°C was then performed to denature the isoQC enzyme and stop the reaction.
To detect the amount of pyroglutamyl-AMC formed, a 0.125 U/mL pGAPase enzyme diluted in 50 mM Tris-HCl pH 8.0 containing 10 mM dithiothreitol (DTT) solution was prepared. 25 µL of the pyroglutamylation reaction mixture was transferred into an empty plate and to that, 25 µL of the pGAPase enzyme solution was added. Plates were then incubated for 25 minutes at room temperature before fluorescence readings were taken on an Envision2 plate reader with excitation set at 380 nm and emission at 450 nm. DMSO concentrations during the assay never exceeded 1% and activities were compared to controls containing only the same amount of DMSO and no test compound. Controls were taken along containing pyroglutamylated-AMC (Bachem, dissolved at 10 mM in DMSO) instead of H-Gln-AMC to control for pGAPase inhibition.
(§2) IC50 values are calculated using non-linear regression analysis with GraphPad Prism software.

For a further series, the target named is T2, recombinant QC enzyme (Homo sapiens, UniProt Q16769).
T2 construct: bacterial expression of residues 33-361 of uniprot ID Q16769, fused to a His tag; His tag (cleaved yes); made in house
T2 sequence (Q16769 33-361): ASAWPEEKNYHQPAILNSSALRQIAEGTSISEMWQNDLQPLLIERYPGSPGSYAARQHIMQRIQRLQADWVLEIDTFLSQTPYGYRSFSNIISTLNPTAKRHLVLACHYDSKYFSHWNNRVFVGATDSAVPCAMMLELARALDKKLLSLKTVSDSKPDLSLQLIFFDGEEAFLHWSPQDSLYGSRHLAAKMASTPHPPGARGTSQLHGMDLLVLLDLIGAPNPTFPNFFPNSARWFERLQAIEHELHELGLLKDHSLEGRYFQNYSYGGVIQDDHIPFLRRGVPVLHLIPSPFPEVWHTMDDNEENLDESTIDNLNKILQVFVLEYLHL
In words: Assay 2 - QC potency, fluorescent enzymatic assay (H-Gln-AMC, coupled pGAPase detection). It counts as biochemical. The settings on record: 1 hour at 37°C. The protocol: After scale-up, expression and lysis, protein was purified by Ni-NTA IMAC, dialysed in the presence of Factor Xa, further purified by Ni-NTA reverse IMAC and finally filtrated for size on a Superdex 200 16/60 column. Final protein was concentrated using a spin concentrator at 10 kDa molecular weight cut-off and formulated in 150 mM NaCl, 50 mM Tris-HCl, 50% Glycerol, pH 8.0.
as §1, with “50 mM” for “50mM”, “h-Gln-AMC” for “hGln-AMC”, “Tris-HCl” for “Tris-HCl 25”, “QC” for “isoQC”
25 µL of the pyroglutamylation reaction mixture was transferred into an empty plate and to that, 25 µL of the pGAPase enzyme solution was added. Plates were then incubated for 25 minutes at room temperature before fluorescence readings were taken on an Envision2 plate reader with excitation set at 380 nm and emission at 450 nm.
Controls were taken along containing pyroglutamylated-AMC (Bachem, dissolved at 10 mM in DMSO) instead of H-Gln-AMC to control for pGAPase inhibition.
as §2

Series [1] can be described thus: CACO-2-based cell-permeation and efflux. The settings on record: human, 2 µM compound, pH 7.40. In kind it is in vitro ADME. The protocol:
CACO-2 (ATCC, Manassas, VA, USA) monolayers on polyethylene membranes in 96-well insert plates were incubated for 2 hours in 5% C02, 37°C with 2 µM compound tested bidirectionally in duplicate using HBSS with 10 mM HEPES at pH 7.40 ±0.05 as transport buffer. Final DMSO Concentrations were adjusted to less than 1%. All samples were mixed with acetonitrile containing internal standard and centrifuged at 3220 x g for 10 minutes. Subsequently, 100 µL supernatant solution was diluted with 100 µL distilled water for LC/MS/MS analysis. Lucifer yellow rejection assays were applied after the transport assay to ensure CACO-2 cell monolayer integrity.
The apparent permeability coefficient Papp (cm/s) was calculated using the equation: Papp = (dCr/dt) × Vr/(A×CO) [formula] where dCr/dt is the cumulative concentration of compound in the receiver chamber as a function of time (µM/s); Vr is the solution volume in the receiver chamber (0.075 mL on the apical side, 0.25 mL on the basolateral side); A is the surface area for the transport, i.e., 0.0804 cm^2 or the area of the monolayer; CO is the initial concentration in the donor chamber (µM).

The nature of series [2]: Microsomal stability, mouse (MLM). It counts as in vitro ADME, CD-1 mouse. The following applies: mouse liver microsomes, 0.5 mg protein/mL, 1 µM test compound. On the procedure:
(§3) In order to assess metabolic stability of test compounds, commercially acquired CD-1 mouse liver microsome preparations were incubated in 100 µL at a final concentration of 0.5 mg protein/mL, 1 µM test compound, 0.99% methanol and 0.01% DMSO, after a 10 minute pre-incubation at 37°C and addition of 0.1 volumes 10 U/mL NADPH in 10 mM MgCl2. Reactions were stopped by addition of 300 µL cold acetonitrile containing internal standards at t = 0, 5, 10, 20, 30, and 60 minutes. Samples were submitted to LC-MS/MS analysis subsequently and the slope of linear regression of time versus In(% Remaining concentration) was derived to calculate t½ as t½= In(2) /(-Slope). Then Clint(mic) and Clint(liver) were calculated as follows: CLint(mk) = (0.693)/(In vitro T1/2) · (1)/(mg/mL microsomal protein in reaction system) [formula] CLint(liver) = CLint(mic) · (mg microsomes)/(g liver) · (g liver)/(kg body weight) [formula]
Where 45 mg microsomal protein/g liver and 88 g liver/kg mouse bodyweight were used as standardized parameters for mouse microsomes.
Background: Microsomes from liver hold many membrane-bound enzymes, among them those of drug oxidation.

Series [3] is described as follows: Microsomal stability, human (HLM). It counts as in vitro ADME. The following applies: liver microsomes, 0.5 mg protein/mL, 1 µM test compound. On the procedure:
as §3
(§4) The same procedure was performed for human microsomes, SD rat microsomes and (beagle) dog microsomes.
Where 45 mg microsomal protein/g liver and 20 g liver/kg human bodyweight were used as standardized parameters for human microsomes.

Series [4] can be described thus: Microsomal stability, rat (RLM). In kind it is in vitro ADME. The following applies: liver microsomes; SD rat microsomes, 0.5 mg protein/mL, 1 µM test compound. On the procedure:
as §3, §4
Where 45 mg microsomal protein/g liver and 40 g liver/kg rat bodyweight were used as standardized parameters for rat microsomes.

Series [5] can be described thus: Microsomal stability, dog (DLM). The settings on record: liver microsomes; (beagle) dog microsomes, 0.5 mg protein/mL, 1 µM test compound. In kind it is in vitro ADME. The protocol:
as §3, §4
Where 45 mg microsomal protein/g liver and 32 g liver/kg dog bodyweight were used as standardized parameters for […].

A short description of another series: Kinetic solubility. The following applies: aqueous buffer; 50 mM phosphate buffer (pH 7.4), 24 hours at room temperature. In kind it is physicochemical. The protocol: To assess the solubility of test compounds 10 µL of a 10 mM solution in DMSO was added to the lower chamber of a whatman miniuniprep (PTFE Filter Media with Polypropylene Housing) vial. 490 µL of 50 mM phosphate buffer (pH 7.4) was added to the lower chamber, the samples were vortexed for at least two minutes and then shaken on a shaker for 24 hours at room temperature at the speed of 880 rpm. The samples were then centrifuged for 20 minutes at 4000 rpm, compressed and the filtrates were injected into a HPLC-UV and LC-MS/MS system to calculate the concentration compared to the standard curve using a ACQUITY UPLC BEH C18 1.7 µm 2.1 * 50 mm column.

In brackets after ≈: the same amount, converted by molar mass.

From patent EP4455142A1, “NOVEL INHIBITOR OF QPCTL AND/OR QC” (Scenic Immunology B.V., priority 2023, dated 2024) come the findings set out here.

T1 sequence (Q9NXS2 53-382): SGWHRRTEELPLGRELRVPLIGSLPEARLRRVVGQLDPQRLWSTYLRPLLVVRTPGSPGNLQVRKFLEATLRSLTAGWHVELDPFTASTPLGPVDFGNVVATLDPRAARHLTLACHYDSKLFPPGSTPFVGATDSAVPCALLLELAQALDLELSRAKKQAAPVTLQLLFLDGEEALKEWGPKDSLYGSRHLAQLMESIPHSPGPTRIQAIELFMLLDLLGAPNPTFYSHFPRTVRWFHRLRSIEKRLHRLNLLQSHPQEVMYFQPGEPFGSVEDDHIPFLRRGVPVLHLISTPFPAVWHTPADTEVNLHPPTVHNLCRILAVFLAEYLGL

In the case of `O=C1OCC(c2cc(F)cc(C(F)(F)F)c2)N1c1ccc2[nH]cnc2c1` (single isomer, unassigned) [(17)-ent2], the IC50 (usually the point on the concentration scale where inhibition reaches its midpoint) on human isoQC came out at 632 nM; at recombinant QC enzyme, 1080 nM. The Papp A→B – broadly, the apparent permeability from the apical to the basolateral side of a cell layer – at 2 h, 2 µM in series [1] (Caco-2, pH 7.4, A2B) is 1.5 ×10⁻⁶ cm/s. Further, in series [1] (Caco-2, pH 7.4, B2A), the Papp B→A (usually the apparent permeability from the basolateral to the apical side of a cell layer) at 2 h, 2 µM was 36.8 ×10⁻⁶ cm/s. Further, the CLint scaled – broadly, the capacity of the preparation to metabolise the compound, expressed as a volume cleared per time – at 1 µM is 182 mL/min/kg in series [2], less than 8.6 mL/min/kg in series [3], 49 mL/min/kg in series [4] and less than 13.8 mL/min/kg in series [5]. Also, the solubility (in general, the dissolved amount per volume that the medium holds) at 24 h in the series “Kinetic solubility” was determined as 39 µM (≈ 14.2 µg/mL).
